The record followed here is PMC10307035, “Antiviral activity of singlet oxygen-photogenerating perylene compounds against SARS-CoV-2: Interaction with the viral envelope and photodynamic virion inactivation” (Virus Research, 2023).

Series [1] relates to feline infectious peritonitis virus (FIPV). Type of series: cell-based, feline coronavirus (FCoV). As to conditions: 0–10 µM.
Series [2] in a line: Spectrofluorometric analysis of interaction with liposomes. The series is classed as physicochemical. As to conditions: 10 µM in PBS.
Series [3] is described as follows: ROS generation measurement with DMA trap in DMSO. Type of series: physicochemical. Summed up: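 DMA (0.5 µM) singlet-oxygen trap mixed with compounds at 0, 0.1, 1 and 10 µM in DMSO, then irradiated 10 min at RT with 465–480 nm LED (~30 mW/cm^2). Fluorescence read at ex/em 370/432 nm with or without α-tocopherol (3 µg/mL); ROS generation indicated by loss of DMA signal.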

The subject of the next series is SARS-CoV-2. The experiment in a line: Photodynamic inactivation of SARS-CoV-2 virions. The series is classed as cell-based. The protocol: Virus in DMEM (titer of 10^5 PFU/mL) was mixed with the compounds (0–10 µM) in a microtiter plate, in triplicate, and irradiated for 10 min at RT with LEDs (465–480 nm) having an approximate power density of 30 mW/cm^2 (device description in supplement). As a negative control, virus was incubated for 10 min in the dark at RT. Subsequently, both irradiated and non-irradiated virus samples were incubated in the dark at 37 °C for 60 min. All manipulation with the samples before and after this incubation, i.e., mixing the compound with the virus, pipetting into a microtiter plate, etc., were performed in daylight. Viral titers were determined by plaque assays (performed also in daylight) and expressed as PFU/mL, as previously described ([Stefanik et al., 2021]). To eliminate the influence of daylight on compound activity, the whole experiment, including all manipulation with samples, was performed in a dark room under red light. The virus sample was mixed with the indicated compounds at concentrations from 0 to 10 μM or 100 μM, incubated for 60 min at 37 °C and virus viability was evaluated using a plaque assay (Fig. 9A).

For a further series, the system named is CaCo-2 cells. The experiment in a line: Cellular stress marker expression by RT-qPCR in CaCo-2 cells. The series is classed as cell-based, human. The method, then:
RT-qPCR was performed to evaluate changes in the gene expression of cellular stress markers. […] Previous publications report the primer sequences and numbers of the Universal Probe Library (UPL; Roche Life Sciences, Germany) used for detection of ATF3, CDKN1A (p21), CYP1A1, DDIT3, HMOX1, HSPA1B (HSP70), and HSPA5 mRNAs ([Procházková et al., 2018]; [Šimečková et al., 2020]). […] TaqMan™ Gene Expression Assays (Thermo Fisher Scientific, Waltham, MA, USA) were used to determine the levels of FGF21 (Hs00173927_m1), GADD45A (Hs00169255_m1), GDF15 (Hs00171132_m1), and SRXN1 (Hs00607800_m1). The amplification was run in a 10-µL reaction mixture containing 1 µL of sample, using Kapa Probe Fast One-Step (Kapa Biosystems Pty, Cape Town, South Africa) on a LightCycler® 480 System (Roche Diagnostics, Czech Republic) using the previously published sequence ([Procházková et al., 2018]). Reference gene qPCR assays (Generi Biotech, Hradec Králové, Czech Republic) were used for the following housekeeping genes: human β2-Microglobulin (B2M; #3030), hydroxymethylbilane synthase (HMBS; #3032), and RNA polymerase II subunit A (POLR2A; #3035). We used an average of three reference gene Cp values to calculate the change in gene expression using the comparative threshold cycle method ([Schmittgen and Livak, 2008]).

Consider `CC(C)(C)C(=O)OCn1c(=O)c(C#Cc2ccc3c4cccc5cccc(c6cccc2c63)c54)cn(CC(=O)N(CCO)CCO)c1=O` [Compound 13], for which the “replication of FIPV in CRFK cells” value in series [1] was “potently suppressed the replication”. The “penetration into liposomal membranes (in words)” value in series [2] (EPC/Chol 70/30 mol% liposomes) is “penetrated the liposomal membranes very quickly and efficiently”. Further, the “steady-state fluorescence signal after mixing with liposomes” value in series [2] (at 520 nm, after 1400 s) is listed as “about 10^5 CPS”. Also, the “ROS generation, DMA trap, under blue light” value in series [3] (465–480 nm, 30 mW/cm^2, 10 min) is “significant bleaching”. Further, the “ROS generation, DMA trap, in the dark or with α-tocopherol” value in series [3] (10 min, dark or α-tocopherol (3 µg/mL)) is given as “no/limited bleaching”. For the same compound, in the series with SARS-CoV-2 (100 µM, dark room, red light, 60 min at 37 °C), the “antiviral effect under red light only” value is “no antiviral effect”. Further, the “antiviral activity after blue light irradiation of virus-compound mixture” value with SARS-CoV-2 (465–480 nm, 30 mW/cm^2, 10 min, then 60 min at 37 °C in the dark, plaque assay) is reported as “low-nanomolar”. In addition, the “antiviral activity under red light only” value with SARS-CoV-2 (up to 10 µM, dark room, red light, 60 min at 37 °C) is on record as “completely disappeared”. Also, the CYP1A1 expression result in the series on CaCo-2 cells (CaCo-2 cells, 10 µM, all tested incubation periods) is recorded as “significantly decreased”. Further, in the series on CaCo-2 cells (CaCo-2 cells, 5, 24 and 48 h), the “expression of HMOX1, SRXN1, TXNRD1 (oxidative stress)” value was “did not increase”; the “expression of HSPA5, DDIT3, HSPA1B (HSP70), CDKN1A (p21), GADD45A” value is “no changes”; the “expression of early toxicity markers (ATF3, FGF21, GDF15)” value is “did not induce”.
